Laboratory results published in article PMC10067855, “Sialidases and fucosidases of Akkermansia muciniphila are crucial for growth on mucin and nutrient sharing with mucus-associated gut bacteria” (Nature Communications, 2023).

Legend:
Test in all cases: inhibition of pNPFuc hydrolysis, A405
Format in all cases: biochemical
AmGH29A = target: T1, AmGH29A (Akkermansia muciniphila, UniProt B2UL68)
T1 construct: gene Amuc_0010; mature peptide lacking the signal peptide
T1 sequence (B2UL68 20-538): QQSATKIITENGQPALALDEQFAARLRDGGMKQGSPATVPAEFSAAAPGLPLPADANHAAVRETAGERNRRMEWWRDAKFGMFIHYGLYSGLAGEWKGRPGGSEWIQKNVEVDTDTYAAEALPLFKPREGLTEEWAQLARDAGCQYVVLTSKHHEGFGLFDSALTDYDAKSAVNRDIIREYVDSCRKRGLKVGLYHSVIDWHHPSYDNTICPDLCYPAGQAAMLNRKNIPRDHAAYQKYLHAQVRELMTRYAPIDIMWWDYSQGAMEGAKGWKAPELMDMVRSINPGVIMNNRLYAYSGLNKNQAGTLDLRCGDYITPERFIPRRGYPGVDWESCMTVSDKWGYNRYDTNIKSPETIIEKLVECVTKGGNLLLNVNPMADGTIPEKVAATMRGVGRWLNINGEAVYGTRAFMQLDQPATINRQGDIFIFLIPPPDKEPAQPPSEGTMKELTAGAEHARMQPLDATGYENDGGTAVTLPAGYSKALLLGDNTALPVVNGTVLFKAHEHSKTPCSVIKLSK

AmGH29D = target: T2, AmGH29D (Akkermansia muciniphila, UniProt B2UQE4)
T2 construct: gene Amuc_0846; mature peptide lacking the signal peptide
T2 sequence (B2UQE4 25-704): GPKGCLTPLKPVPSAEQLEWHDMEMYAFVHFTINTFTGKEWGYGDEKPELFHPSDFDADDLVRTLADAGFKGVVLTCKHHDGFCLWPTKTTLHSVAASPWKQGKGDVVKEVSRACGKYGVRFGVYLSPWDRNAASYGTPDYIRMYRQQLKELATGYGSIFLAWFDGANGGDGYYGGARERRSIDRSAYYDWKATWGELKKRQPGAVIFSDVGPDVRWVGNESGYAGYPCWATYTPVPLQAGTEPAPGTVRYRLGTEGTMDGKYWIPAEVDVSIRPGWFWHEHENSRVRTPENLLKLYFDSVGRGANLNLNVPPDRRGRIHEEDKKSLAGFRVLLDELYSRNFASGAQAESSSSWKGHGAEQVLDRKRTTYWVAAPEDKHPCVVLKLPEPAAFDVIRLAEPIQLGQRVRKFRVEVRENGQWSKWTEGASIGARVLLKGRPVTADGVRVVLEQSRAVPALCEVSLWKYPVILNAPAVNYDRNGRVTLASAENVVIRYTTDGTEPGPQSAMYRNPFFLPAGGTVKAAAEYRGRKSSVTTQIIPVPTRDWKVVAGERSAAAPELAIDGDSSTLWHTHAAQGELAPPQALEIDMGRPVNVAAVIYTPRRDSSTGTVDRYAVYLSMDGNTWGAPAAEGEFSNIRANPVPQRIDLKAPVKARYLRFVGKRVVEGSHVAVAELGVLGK

AmGH95B = target: T3, AmGH95B (Akkermansia muciniphila, UniProt B2UR61)
T3 construct: gene Amuc_1120; mature peptide lacking the signal peptide
T3 sequence (B2UR61 23-796): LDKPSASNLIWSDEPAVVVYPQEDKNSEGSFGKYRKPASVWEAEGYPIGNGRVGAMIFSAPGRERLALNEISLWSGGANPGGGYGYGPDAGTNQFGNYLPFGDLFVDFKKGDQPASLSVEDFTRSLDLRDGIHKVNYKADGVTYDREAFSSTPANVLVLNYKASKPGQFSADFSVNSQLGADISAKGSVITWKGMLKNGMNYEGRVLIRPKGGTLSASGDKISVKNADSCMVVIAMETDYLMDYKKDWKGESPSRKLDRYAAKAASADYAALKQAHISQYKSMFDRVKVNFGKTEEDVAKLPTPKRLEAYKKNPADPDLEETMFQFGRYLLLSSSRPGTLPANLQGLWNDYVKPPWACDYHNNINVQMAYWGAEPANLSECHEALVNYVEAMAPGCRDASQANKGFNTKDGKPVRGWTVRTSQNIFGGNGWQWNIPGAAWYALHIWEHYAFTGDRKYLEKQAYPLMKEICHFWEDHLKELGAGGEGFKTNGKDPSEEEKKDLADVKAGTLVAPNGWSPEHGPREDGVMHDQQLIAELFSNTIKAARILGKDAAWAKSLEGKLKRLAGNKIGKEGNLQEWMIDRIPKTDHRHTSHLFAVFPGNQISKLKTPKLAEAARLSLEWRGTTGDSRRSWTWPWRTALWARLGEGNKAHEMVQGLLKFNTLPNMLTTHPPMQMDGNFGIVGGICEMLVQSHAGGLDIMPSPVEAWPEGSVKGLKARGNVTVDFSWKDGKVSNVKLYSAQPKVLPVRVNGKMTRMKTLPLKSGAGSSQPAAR

AmGH95A = target: T4, AmGH95A (Akkermansia muciniphila, UniProt B2UM81)
T4 construct: gene Amuc_0186; mature peptide lacking the signal peptide
T4 sequence (B2UM81 25-788): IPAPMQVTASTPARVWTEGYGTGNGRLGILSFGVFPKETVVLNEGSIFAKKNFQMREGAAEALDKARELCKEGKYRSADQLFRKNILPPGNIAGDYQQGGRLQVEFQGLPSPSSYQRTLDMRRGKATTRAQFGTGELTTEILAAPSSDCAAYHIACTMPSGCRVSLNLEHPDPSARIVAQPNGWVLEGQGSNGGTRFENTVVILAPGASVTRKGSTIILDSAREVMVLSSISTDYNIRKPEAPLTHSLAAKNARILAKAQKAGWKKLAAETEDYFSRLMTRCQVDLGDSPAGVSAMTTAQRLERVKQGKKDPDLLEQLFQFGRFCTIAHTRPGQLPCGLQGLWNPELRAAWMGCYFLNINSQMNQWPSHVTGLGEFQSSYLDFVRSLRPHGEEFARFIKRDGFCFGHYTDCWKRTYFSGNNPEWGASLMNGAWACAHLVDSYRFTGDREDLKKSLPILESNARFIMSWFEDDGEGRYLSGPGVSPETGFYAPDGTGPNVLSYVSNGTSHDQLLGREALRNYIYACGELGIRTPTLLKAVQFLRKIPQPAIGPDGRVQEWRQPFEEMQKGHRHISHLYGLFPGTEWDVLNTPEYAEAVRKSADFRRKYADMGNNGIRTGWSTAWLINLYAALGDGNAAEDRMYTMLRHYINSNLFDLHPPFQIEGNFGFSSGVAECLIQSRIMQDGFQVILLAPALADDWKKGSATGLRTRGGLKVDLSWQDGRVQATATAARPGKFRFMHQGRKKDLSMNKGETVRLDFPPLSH

Measured: IC50

C[C@@H]1NC[C@@H](O)[C@H](O)[C@@H]1O [DFJ, 1-Deoxyfuconojirimycin]
< 54 µM: all assays above
